The values below come from PubChem BioAssay AID624317 (Sanford-Burnham Center for Chemical Genomics, 2012).

The target in the assay is Probable nicotinate-nucleotide adenylyltransferase (Staphylococcus aureus (strain N315)) (UniProt P65502). Put plainly: potency of S. aureus NadD blockers – biochemical, colorimetric, uHTS hits, dose response (AID 624317). The following applies: purified NadD enzyme, colorimetric activity assay.
Probable nicotinate-nucleotide adenylyltransferase (Staphylococcus aureus (strain N315)), sequence (P65502 whole entry, looked up): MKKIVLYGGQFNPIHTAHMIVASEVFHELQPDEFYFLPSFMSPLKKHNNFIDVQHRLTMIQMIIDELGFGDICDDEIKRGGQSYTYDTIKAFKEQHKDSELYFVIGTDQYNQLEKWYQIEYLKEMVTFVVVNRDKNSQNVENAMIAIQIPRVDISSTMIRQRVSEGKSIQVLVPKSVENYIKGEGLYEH

`C[c-]1[c-](C)[c-](C)[c-](C)[c-]1C.[Fe].c1cc2nccc(N3CCCC3)[c-]2c1` (stereo unspecified): the 50% inhibitory concentration (IC50) (usually the concentration that gives 50% inhibition) is 35.9 µM.
